Tests used:
Assay type in all cases: in vivo
[1] = tested on: smallflower flatsedge (Cyperus difformis); experiment: Test C flooded paddy test; details: for Flatsedge plant response rating: Flooded Paddy, scale 0 to 100, 0 no effect, 100 complete control; for Plant response rating, Flatsedge / Plant response rating (scale 0 to 100), Flatsedge: flooded paddy test; for Plant response rating, Flatsedge: scale 0 to 100 (0 no effect, 100 complete control)
Procedure, shortened: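 Plants were grown to the 2-leaf stage under flooded paddy conditions and treated. They were then kept in a greenhouse for 12 to 14 days and visually rated against untreated controls on a 0–100 scale, where 0 is no effect and 100 is complete control.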

[2] = tested on: blackgrass (Alopecurus myosuroides); experiment: Test B postemergence; details: 13 to 15 days
Procedure, shortened: (§1)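 Greenhouse test: chemicals are formulated in a surfactant-containing non-phytotoxic solvent and applied either preemergence to planted seeds or postemergence to plants 2 to 18 cm tall. Response is rated visually versus controls after 13 to 15 days, 0 meaning no effect and 100 complete control.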

wild oat (Avena fatua) = experiment: Test B postemergence; details: 13 to 15 days
Procedure, shortened: as §1

[3] = tested on: giant foxtail (Setaria faberii); experiment: Test B postemergence; details: 13 to 15 days
Procedure, shortened: as §1

[4] = tested on: lambsquarters (Chenopodium album); experiment: Test B postemergence; details: 13 to 15 days
Procedure, shortened: as §1

[5] = tested on: Surinam grass (Brachiaria decumbens); experiment: Test B postemergence; details: 13 to 15 days
Procedure, shortened: as §1

[6] = tested on: crabgrass (Digitaria sanguinalis); experiment: Test B postemergence; details: 13 to 15 days
Procedure, shortened: as §1

[7] = tested on: barnyardgrass (Echinochloa crus-galli); experiment: Test B postemergence; details: 13 to 15 days
Procedure, shortened: as §1

[8] = tested on: morning glory (Ipomoea hederacea); experiment: Test B postemergence; details: 13 to 15 days
Procedure, shortened: as §1

[9] = tested on: cocklebur (Xanthium strumarium); experiment: Test B postemergence; details: 13 to 15 days
Procedure, shortened: as §1

[10] = tested on: pigweed (Amaranthus retroflexus); experiment: Test B postemergence; details: 13 to 15 days
Procedure, shortened: as §1

[11] = tested on: velvetleaf (Abutilon theophrasti); experiment: Test B postemergence; details: 13 to 15 days
Procedure, shortened: as §1

corn (Zea mays) [12] = experiment: Test B postemergence; details: 13 to 15 days
Procedure, shortened: as §1

[13] = tested on: wheat (Triticum aestivum); experiment: Test B postemergence; details: 13 to 15 days
Procedure, shortened: as §1

[14] = tested on: giant foxtail (Setaria faberii); experiment: Test B preemergence; details: scale 0 to 100, 0 no effect, 100 complete control
Procedure, shortened: as §1

[15] = tested on: lambsquarters (Chenopodium album); experiment: Test B preemergence; details: scale 0 to 100, 0 no effect, 100 complete control
Procedure, shortened: as §1

rice (Oryza saliva) = experiment: Test B preemergence; details: scale 0 to 100, 0 no effect, 100 complete control
Procedure, shortened: as §1

[16] = tested on: Surinam grass (Brachiaria decumbens); experiment: Test B preemergence; details: scale 0 to 100, 0 no effect, 100 complete control
Procedure, shortened: as §1

[17] = tested on: crabgrass (Digitaria sanguinalis); experiment: Test B preemergence; details: scale 0 to 100, 0 no effect, 100 complete control
Procedure, shortened: as §1

[18] = tested on: barnyardgrass (Echinochloa crus-galli); experiment: Test B preemergence; details: scale 0 to 100, 0 no effect, 100 complete control
Procedure, shortened: as §1

[19] = tested on: morning glory (Ipomoea hederacea); experiment: Test B preemergence; details: scale 0 to 100, 0 no effect, 100 complete control
Procedure, shortened: as §1

[20] = tested on: cocklebur (Xanthium strumarium); experiment: Test B preemergence; details: scale 0 to 100, 0 no effect, 100 complete control
Procedure, shortened: as §1

[21] = tested on: pigweed (Amaranthus retroflexus); experiment: Test B preemergence; details: scale 0 to 100, 0 no effect, 100 complete control
Procedure, shortened: as §1

[22] = tested on: velvetleaf (Abutilon theophrasti); experiment: Test B preemergence; details: scale 0 to 100, 0 no effect, 100 complete control
Procedure, shortened: as §1

corn (Zea mays) [23] = experiment: Test B preemergence; details: scale 0 to 100, 0 no effect, 100 complete control
Procedure, shortened: as §1

[24] = Rate 125 g/ha, scale 0 (no effect) to 100 (complete control)
[25] = Rate 500 g/ha, scale 0 to 100, 0 is no effect, 100 is complete control

CCC(C)c1ccn(C2OCN(c3cccc(C(F)(F)F)c3)C2=O)n1 (stereo not shown) [Compound 24]
Flatsedge plant response rating ([1]; Rate 250 g/ha): 100 | Flatsedge plant response rating ([1]; Rate 500 g/ha): 100 | Plant response rating, Flatsedge ([1]; Rate 62 g/ha): 100 | Plant response rating, Flatsedge ([1]; Rate 125 g/ha): 100 | Plant response rating (scale 0 to 100), Flatsedge ([1]; Rate 16 g/ha, visually evaluated after 12 to 14 days, 0 = no effect, 100 = complete control): 100 | Plant response rating (scale 0 to 100), Flatsedge ([1]; under head Rate 16 g/ha, (own rate not given), after 12 to 14 days): 100 | Plant response rating, Blackgrass [2, 24]: 0 | Plant response rating, Blackgrass [2, 25]: 0 | Plant response rating, Wild Oat (wild oat (Avena fatua); [24]): 0 | Plant response rating, Wild Oat (wild oat (Avena fatua); [25]): 0 | Plant response rating, Foxtail, Giant [3, 24]: 20 | Plant response rating, Foxtail, Giant [3, 25]: 80 | Plant response rating, Lambsquarters [4, 24]: 90 | Plant response rating, Lambsquarters [4, 25]: 100 | Plant response rating, Surinam grass [5, 24]: 0 | Plant response rating, Surinam grass [5, 25]: 50 | Plant response rating, Crabgrass [6, 24]: 60 | Plant response rating, Crabgrass [6, 25]: 90 | Plant response rating, Barnyardgrass [7, 24]: 70 | Plant response rating, Barnyardgrass [7, 25]: 100 | Plant response rating, Morningglory [8, 24]: 0 | Plant response rating, Morningglory [8, 25]: 40 | Plant response rating, Cocklebur [9, 24]: 20 | Plant response rating, Cocklebur [9, 25]: 40 | Plant response rating, Pigweed [10, 24]: 80 | Plant response rating, Pigweed [10, 25]: 100 | Plant response rating, Velvetleaf [11, 24]: 0 | Plant response rating, Velvetleaf [11, 25]: 0 | Plant response rating, Corn (corn (Zea mays) [12]; [24]): 0 | Plant response rating, Corn (corn (Zea mays) [12]; [25]): 50 | Plant response rating, Wheat [13, 24]: 0 | Plant response rating, Wheat [13, 25]: 0 | Plant response rating, Foxtail, Giant ([14]; Preemergence, Rate 500 g/ha): 100 | Plant response rating, Foxtail, Giant ([14]; preemergence, Rate 125 g/ha): 90 | Plant response rating, Lambsquarters ([15]; Preemergence, Rate 500 g/ha): 100 | Plant response rating, Lambsquarters ([15]; preemergence, Rate 125 g/ha): 100 | Plant response rating, Rice (rice (Oryza saliva); Preemergence, Rate 500 g/ha): 0 | Plant response rating, Rice (rice (Oryza saliva); preemergence, Rate 125 g/ha): 0 | Plant response rating, Surinam grass ([16]; Preemergence, Rate 500 g/ha): 80 | Plant response rating, Surinam grass ([16]; preemergence, Rate 125 g/ha): 20 | Plant response rating, Crabgrass ([17]; Preemergence, Rate 500 g/ha): 100 | Plant response rating, Crabgrass ([17]; preemergence, Rate 125 g/ha): 100 | Plant response rating, Barnyardgrass ([18]; Preemergence, Rate 500 g/ha): 100 | Plant response rating, Barnyardgrass ([18]; preemergence, Rate 125 g/ha): 20 | Plant response rating, Morningglory ([19]; Preemergence, Rate 500 g/ha): 0 | Plant response rating, Morningglory ([19]; preemergence, Rate 125 g/ha): 0 | Plant response rating, Cocklebur ([20]; Preemergence, Rate 500 g/ha): 0 | Plant response rating, Cocklebur ([20]; preemergence, Rate 125 g/ha): 0 | Plant response rating, Pigweed ([21]; Preemergence, Rate 500 g/ha): 100 | Plant response rating, Pigweed ([21]; preemergence, Rate 125 g/ha): 100 | Plant response rating, Velvetleaf ([22]; Preemergence, Rate 500 g/ha): 0 | Plant response rating, Velvetleaf ([22]; preemergence, Rate 125 g/ha): 0 | Plant response rating, Corn (corn (Zea mays) [23]; Preemergence, Rate 500 g/ha): 20 | Plant response rating, Corn (corn (Zea mays) [23]; preemergence, Rate 125 g/ha): 0

O=C1C(n2ccc(C3CC3)n2)SCN1c1cccc(C(F)(F)F)c1 (stereo not shown) [Compound 26]
Flatsedge plant response rating ([1]; Rate 250 g/ha): 95 | Flatsedge plant response rating ([1]; Rate 500 g/ha): 95 | Plant response rating, Flatsedge ([1]; Rate 62 g/ha): 90 | Plant response rating, Flatsedge ([1]; Rate 125 g/ha): 90 | Plant response rating, Blackgrass [2, 24]: 0 | Plant response rating, Blackgrass [2, 25]: 0 | Plant response rating, Wild Oat (wild oat (Avena fatua); [24]): 0 | Plant response rating, Wild Oat (wild oat (Avena fatua); [25]): 0 | Plant response rating, Foxtail, Giant [3, 24]: 20 | Plant response rating, Foxtail, Giant [3, 25]: 50 | Plant response rating, Lambsquarters [4, 24]: 80 | Plant response rating, Lambsquarters [4, 25]: 80 | Plant response rating, Surinam grass [5, 24]: 20 | Plant response rating, Surinam grass [5, 25]: 20 | Plant response rating, Crabgrass [6, 24]: 0 | Plant response rating, Crabgrass [6, 25]: 20 | Plant response rating, Barnyardgrass [7, 24]: 0 | Plant response rating, Barnyardgrass [7, 25]: 80 | Plant response rating, Morningglory [8, 24]: 0 | Plant response rating, Morningglory [8, 25]: 10 | Plant response rating, Cocklebur [9, 24]: 50 | Plant response rating, Cocklebur [9, 25]: 60 | Plant response rating, Pigweed [10, 24]: 0 | Plant response rating, Pigweed [10, 25]: 60 | Plant response rating, Velvetleaf [11, 24]: 20 | Plant response rating, Velvetleaf [11, 25]: 20 | Plant response rating, Corn (corn (Zea mays) [12]; [24]): 0 | Plant response rating, Corn (corn (Zea mays) [12]; [25]): 70 | Plant response rating, Wheat [13, 24]: 0 | Plant response rating, Wheat [13, 25]: 0 | Plant response rating, Foxtail, Giant ([14]; Preemergence, Rate 500 g/ha): 100 | Plant response rating, Foxtail, Giant ([14]; preemergence, Rate 125 g/ha): 100 | Plant response rating, Lambsquarters ([15]; Preemergence, Rate 500 g/ha): 100 | Plant response rating, Lambsquarters ([15]; preemergence, Rate 125 g/ha): 100 | Plant response rating, Rice (rice (Oryza saliva); Preemergence, Rate 500 g/ha): 80 | Plant response rating, Rice (rice (Oryza saliva); preemergence, Rate 125 g/ha): 40 | Plant response rating, Surinam grass ([16]; Preemergence, Rate 500 g/ha): 70 | Plant response rating, Surinam grass ([16]; preemergence, Rate 125 g/ha): 40 | Plant response rating, Crabgrass ([17]; Preemergence, Rate 500 g/ha): 100 | Plant response rating, Crabgrass ([17]; preemergence, Rate 125 g/ha): 100 | Plant response rating, Barnyardgrass ([18]; Preemergence, Rate 500 g/ha): 100 | Plant response rating, Barnyardgrass ([18]; preemergence, Rate 125 g/ha): 100 | Plant response rating, Morningglory ([19]; Preemergence, Rate 500 g/ha): 0 | Plant response rating, Morningglory ([19]; preemergence, Rate 125 g/ha): 0 | Plant response rating, Cocklebur ([20]; Preemergence, Rate 500 g/ha): 0 | Plant response rating, Cocklebur ([20]; preemergence, Rate 125 g/ha): 0 | Plant response rating, Pigweed ([21]; Preemergence, Rate 500 g/ha): 100 | Plant response rating, Pigweed ([21]; preemergence, Rate 125 g/ha): 100 | Plant response rating, Velvetleaf ([22]; Preemergence, Rate 500 g/ha): 0 | Plant response rating, Velvetleaf ([22]; preemergence, Rate 125 g/ha): 0 | Plant response rating, Corn (corn (Zea mays) [23]; Preemergence, Rate 500 g/ha): 70 | Plant response rating, Corn (corn (Zea mays) [23]; preemergence, Rate 125 g/ha): 10

Source: patent US7138361B2, “Herbicidal heterocycles” (E. I. du Pont de Nemours and Company, priority 2000, dated 2006)
